Experimental data taken from BindingDB's records for doi:10.7270/Q2N014XN (Srmlsc, 2007).
pIC50: −log10 of the molar value. Counter-ions that a name gives are not always drawn.

Target: T1, Diphosphomevalonate decarboxylase (Streptococcus pneumoniae serotype 2 (strain D39 / NCTC 7466), UniProt A0A0H2ZN59)
T1 sequence (A0A0H2ZN59 whole entry): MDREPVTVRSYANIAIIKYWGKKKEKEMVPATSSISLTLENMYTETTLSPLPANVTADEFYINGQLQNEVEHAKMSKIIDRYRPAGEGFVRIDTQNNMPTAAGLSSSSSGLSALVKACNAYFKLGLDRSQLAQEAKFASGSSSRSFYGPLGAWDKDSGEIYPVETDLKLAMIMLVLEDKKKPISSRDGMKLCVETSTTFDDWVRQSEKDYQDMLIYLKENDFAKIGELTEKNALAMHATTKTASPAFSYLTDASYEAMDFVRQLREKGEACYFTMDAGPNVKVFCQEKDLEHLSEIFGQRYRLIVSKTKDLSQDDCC
Test: S. pneumoniae DPM-DC inhibitor potency, dose response, biochemical, PK/LDH-coupled NADH fluorescence, hexokinase coupling counter-screen (AID 550)

[1] = inactive by the depositor's call

**Q.** How did the pIC50 turn out when COc1ccc(-c2cc(C(=O)OCC(=O)N(C)C)c3ccccc3n2)cc1 [2-(4-methoxyphenyl)-4-quinolinecarboxylic acid [2-(dimethylamino)-2-oxoethyl] ester] was run?
**A.** 4.39

**Q.** How did the pIC50 turn out when CCC(=O)Nc1cccc(NC(=O)CSc2nnnn2Cc2ccccc2)c1 [MLS000068150] was run?
**A.** < 2.00

**Q.** How did the pIC50 turn out when O=C(O)c1c(-c2ccccc2)c2oc3ccccc3c2[nH]c1=O was run?
**A.** 4.77

**Q.** With CN(C)C(=O)Nc1cnc2ccccc2c1 [1,1-dimethyl-3-(3-quinolinyl)urea] as the molecule, how does the pIC50 read?
**A.** < 2.00

**Q.** With Cc1c(NC(=O)C2CCN(S(=O)(=O)c3ccccc3)CC2)c(=O)n(-c2ccccc2)n1C [1-(benzenesulfonyl)-N-(1,5-dimethyl-3-oxo-2-phenyl-4-pyrazolyl)-4-piperidinecarboxamide] as the molecule, how does the pIC50 read?
**A.** < 2.00

**Q.** How did the pIC50 turn out when CCCC(=O)Nc1ccc(N2CCN(C(=O)CCC)CC2)cc1 [MLS000034431] was run?
**A.** < 2.00

**Q.** With CCOC(=O)C1=C(C)N=C(C)C(C(=O)OCC)C1c1cc2ccc(C)cc2[nH]c1=O (stereo not drawn) [diethyl 2,6-dimethyl-4-(7-methyl-2-oxidanylidene-1H-quinolin-3-yl)-1,4-dihydropyridine-3,5-dicarboxylate] as the molecule, how does the pIC50 read?
**A.** 3.83

**Q.** CCN(CCNC(=O)C1CCN(c2nnc(-n3cccc3)s2)CC1)c1ccccc1 [MLS000119699] was tested. Which pIC50 did it give?
**A.** < 2.00

**Q.** With Cc1nc(-c2cnn(-c3ccccc3)c2)c2cc(C)oc2n1 [SMR000046165] as the molecule, how does the pIC50 read?
**A.** < 2.00

**Q.** With CC(=O)NCCn1c(SCc2cc(=O)n3cc(Cl)ccc3n2)nc2ccccc2c1=O [MLS000095256] as the molecule, how does the pIC50 read?
**A.** 4.15

**Q.** COc1ccccc1CNc1ncnc2nc[nH]c12 [MLS000101257] was tested. Which pIC50 did it give?
**A.** < 2.00

**Q.** Nc1cc(C(=O)O)ccc1Nc1ccccc1 [3-amino-4-anilino-benzoic acid] was tested. Which pIC50 [1] did it give?
**A.** 3.92

**Q.** With Cc1cc(O)cc(C)n1 [2,6-dimethyl-1H-pyridin-4-one] as the molecule, how does the pIC50 read?
**A.** < 2.00

**Q.** With O=C(CN1CCCC1)N1CCCc2c1c(=O)oc1ccc(OCc3ccccc3)cc21 [4-[1-oxo-2-(1-pyrrolidinyl)ethyl]-9-phenylmethoxy-2,3-dihydro-1H-[1]benzopyrano[3,4-b]pyridin-5-one] as the molecule, how does the pIC50 read?
**A.** 4.61

**Q.** How did the pIC50 turn out when Cc1cnc(SCCc2ccncc2)nc1C [4,5-dimethyl-2-(2-pyridin-4-ylethylsulfanyl)pyrimidine;hydrochloride] was run?
**A.** < 2.00

**Q.** How did the pIC50 [1] turn out when Clc1ccc2c(c1)[C@H]1OCC[C@H]1[C@@H](c1ccco1)N2 [(3aS,4S,9bS)-8-chloranyl-4-(furan-2-yl)-2,3,3a,4,5,9b-hexahydrofuro[3,2-c]quinoline] was run?
**A.** 4.61

**Q.** With CC(C)c1ccc(-c2nc3c([nH]2)c(=O)n(C)c(=O)n3C)cc1 [1,3-dimethyl-8-(4-propan-2-ylphenyl)-7H-purine-2,6-dione] as the molecule, how does the pIC50 read?
**A.** 4.66

**Q.** O=C(O)c1cccn2c(=O)c3ccccc3nc12 [11-Oxo-11H-pyrido[2,1-b]quinazoline-6-carboxylic acid] was tested. Which pIC50 [1] did it give?
**A.** 4.18

**Q.** With Cc1ccc(C2C3CN(C(C)C)CCC3=C(C#N)C(=N)C2(C#N)C#N)cc1 (stereo not drawn) [SMR000034220] as the molecule, how does the pIC50 read?
**A.** 4.40

**Q.** How did the pIC50 turn out when COc1ccccc1NC(=O)CSc1nc(O)cc(=O)n1-c1ccccc1OC [N-(2-methoxyphenyl)-2-[1-(2-methoxyphenyl)-6-oxidanyl-4-oxidanylidene-pyrimidin-2-yl]sulfanyl-ethanamide] was run?
**A.** < 2.00

**Q.** How did the pIC50 turn out when CCc1cc(C(Cc2ccc3ccccc3n2)N=O)c(O)cc1O (stereo not drawn) [(6Z)-4-ethyl-3-hydroxy-6-[1-(hydroxyamino)-2-(2-quinolinyl)ethylidene]-1-cyclohexa-2,4-dienone] was run?
**A.** < 2.00

**Q.** COc1cc2c(C#N)c(N3CCN(c4ccccc4OC)CC3)nc(N)c2c(N)n1 [1,8-diamino-6-methoxy-3-(4-(2-methoxyphenyl)piperazin-1-yl)-2,7-naphthyridine-4-carbonitrile] was tested. Which pIC50 did it give?
**A.** < 2.00

**Q.** With Cc1ccccc1-c1nc2cc(N)ccc2o1 [2-(2-methylphenyl)-1,3-benzoxazol-5-amine] as the molecule, how does the pIC50 read?
**A.** 4.99

**Q.** CC(C)CC(=O)NCC(C)NC(=O)CC(C)C (stereo not drawn) [3-methyl-N-[2-(3-methylbutanoylamino)propyl]butanamide] was tested. Which pIC50 did it give?
**A.** < 2.00

**Q.** With CCOC(=O)c1c(Nc2nc(C)c(C(=O)NC)s2)sc(C)c1C [4,5-dimethyl-2-[[4-methyl-5-(methylcarbamoyl)-2-thiazolyl]amino]-3-thiophenecarboxylic acid ethyl ester] as the molecule, how does the pIC50 read?
**A.** < 2.00

**Q.** O=C(Nc1ccc2nc(-c3ccco3)c(-c3ccco3)nc2c1)N1CCCCCC1 was tested. Which pIC50 did it give?
**A.** 4.33

**Q.** CC(C)(C)CC(=O)Nc1nnc(-c2cccs2)s1 [3,3-Dimethyl-N-(5-thiophen-2-yl-[1,3,4]thiadiazol-2-yl)-butyramide] was tested. Which pIC50 did it give?
**A.** < 2.00

**Q.** COc1ccc(-c2c3c(nc4sc(C(=O)Nc5cc(C)on5)c(N)c24)CCC3)cc1 [3-amino-4-(4-methoxyphenyl)-N-(5-methyl-3-isoxazolyl)-6,7-dihydro-5H-cyclopenta[b]thieno[3,2-e]pyridine-2-carboxamide] was tested. Which pIC50 did it give?
**A.** 5.08

**Q.** CC(=O)Nc1cccc(NC(=O)CSc2nnnn2Cc2ccccc2)c1 [MLS000068005] was tested. Which pIC50 did it give?
**A.** < 2.00

**Q.** With O=c1c2cc(N3CCOCC3)ccc2[nH]c(=S)n1CCCN1CCN(c2ccccc2F)CC1 [SMR000030978] as the molecule, how does the pIC50 read?
**A.** 4.23

**Q.** How did the pIC50 turn out when CN(C)Cc1nc2ccccc2c(=O)n1Cc1nc(-c2cc3ccccc3o2)cs1 [3-[[4-(1-benzofuran-2-yl)-1,3-thiazol-2-yl]methyl]-2-[(dimethylamino)methyl]quinazolin-4-one] was run?
**A.** < 2.00

**Q.** How did the pIC50 turn out when Cc1nc2cc(NC(=O)NCc3ccco3)ccc2n1C [1-(1,2-dimethyl-5-benzimidazolyl)-3-(2-furanylmethyl)urea] was run?
**A.** < 2.00

**Q.** How did the pIC50 turn out when COC(=O)c1[nH]c2ccc(Cl)cc2c1NC(=O)CCN1CCOCC1 [5-chloro-3-[[3-(4-morpholinyl)-1-oxopropyl]amino]-1H-indole-2-carboxylic acid methyl ester] was run?
**A.** 3.83

**Q.** O=C(NCC1CCCO1)c1coc2nc3ccccc3nc12 (stereo not drawn) [MLS000046703] was tested. Which pIC50 did it give?
**A.** 4.51

**Q.** Cc1cc(=O)[nH]c2ccccc12 was tested. Which pIC50 did it give?
**A.** < 2.00

**Q.** With CCOC(=O)c1cncc(NC(=O)c2ccccc2)c1 [5-benzamido-3-pyridinecarboxylic acid ethyl ester] as the molecule, how does the pIC50 read?
**A.** < 2.00

**Q.** With CCCN(CC(=O)c1cc(C)n(C)c1C)S(=O)(=O)c1cccc(C(F)(F)F)c1 [MLS000055141] as the molecule, how does the pIC50 read?
**A.** < 2.00

**Q.** Cn1ncc2c(Nc3ccc(-c4ccccc4)cc3)ncnc21 [(1-methylpyrazolo[3,4-d]pyrimidin-4-yl)-(4-phenylphenyl)amine] was tested. Which pIC50 did it give?
**A.** 4.27

**Q.** O=S(=O)(Nc1ccc(C(F)(F)F)cc1)c1c[nH]cn1 was tested. Which pIC50 did it give?
**A.** < 2.00

**Q.** O=C(C1CCCCC1)N1CCC(c2nc3c(nnn3Cc3ccccc3Cl)c(=O)[nH]2)CC1 was tested. Which pIC50 did it give?
**A.** < 2.00

**Q.** O=c1cccccc1NCc1ccccc1 [2-(benzylamino)cyclohepta-2,4,6-trien-1-one] was tested. Which pIC50 [1] did it give?
**A.** 3.56

**Q.** How did the pIC50 turn out when CCc1ccc(NC(=O)c2cnc3scc(C)n3c2=O)cc1 [MLS000102000] was run?
**A.** < 2.00

**Q.** How did the pIC50 turn out when Cc1nc(NCCN)c(C#N)c2c1COC(C)(C)C2 [6-(2-aminoethylamino)-3,3,8-trimethyl-1,4-dihydropyrano[3,4-c]pyridine-5-carbonitrile] was run?
**A.** 4.13

**Q.** How did the pIC50 turn out when COc1ccc(CCn2c(N)c(S(=O)(=O)c3cccs3)c3nc4ccccc4nc32)cc1OC [1-[2-(3,4-dimethoxyphenyl)ethyl]-3-thiophen-2-ylsulfonyl-2-pyrrolo[3,2-b]quinoxalinamine] was run?
**A.** 3.98

**Q.** How did the pIC50 turn out when CCOc1nc(-c2ccccc2)ccc1-c1noc(-c2ccc(OC)c(OC)c2)n1 [3-[5-(3,4-Dimethoxy-phenyl)-[1,2,4]oxadiazol-3-yl]-2-ethoxy-6-phenyl-pyridine] was run?
**A.** < 2.00

**Q.** With Cc1ccc(OCCn2c(C)c(C=Nn3cnnc3)c3ccccc32)cc1 [1-[2-methyl-1-[2-(4-methylphenoxy)ethyl]-3-indolyl]-N-(1,2,4-triazol-4-yl)methanimine] as the molecule, how does the pIC50 read?
**A.** < 2.00

**Q.** How did the pIC50 turn out when CCOC(=O)c1cc2c(=O)n3ccccc3nc2n(C(C)C)/c1=N\C(=O)c1ccncc1 [2-isonicotinoylimino-1-isopropyl-5-keto-dipyrido[1,2-d:3',4'-f]pyrimidine-3-carboxylic acid ethyl ester] was run?
**A.** 4.82

**Q.** With CCOC(=O)N1CCN(C(=O)c2cn(CC)c3cc(N4CCN(C)CC4)c(F)cc3c2=O)CC1 [4-[1-ethyl-6-fluoro-4-keto-7-(4-methylpiperazino)quinoline-3-carbonyl]piperazine-1-carboxylic acid ethyl ester;hydrochloride] as the molecule, how does the pIC50 read?
**A.** 4.30

**Q.** With COc1ccc(C(c2nnnn2CC2CCCO2)N2CCN(c3ccccc3)CC2)cc1 (stereo not drawn) [1-[(4-methoxyphenyl)-[1-(2-oxolanylmethyl)-5-tetrazolyl]methyl]-4-phenylpiperazine] as the molecule, how does the pIC50 read?
**A.** < 2.00

**Q.** How did the pIC50 turn out when Cc1cc(N2CCOCC2)c2c(N)c(Br)cc(C)c2n1 [(6-bromo-2,8-dimethyl-4-morpholino-5-quinolyl)amine] was run?
**A.** < 2.00

**Q.** O=C(O)CCn1nnc(-c2cccs2)n1 [3-(5-Thiophen-2-yl-tetrazol-2-yl)-propionic acid] was tested. Which pIC50 did it give?
**A.** < 2.00

**Q.** How did the pIC50 turn out when COc1cc2c(cc1NC(=O)c1ccc3c(c1)OCO3)oc1ccccc12 [MLS000088875] was run?
**A.** < 2.00

**Q.** With c1ccc(N2CCN(c3cnccn3)CC2)nc1 [2-(4-pyridin-2-ylpiperazin-1-yl)pyrazine] as the molecule, how does the pIC50 read?
**A.** < 2.00

**Q.** With O=c1[nH]c2cc3c(cc2cc1CN(CCCO)Cc1nnnn1Cc1ccc(F)cc1)OCO3 [7-[[[1-[(4-fluorophenyl)methyl]-1,2,3,4-tetrazol-5-yl]methyl-(3-oxidanylpropyl)amino]methyl]-5H-[1,3]dioxolo[4,5-g]quinolin-6-one] as the molecule, how does the pIC50 read?
**A.** 4.27

**Q.** With CCCn1c(C)nc2c(c1=O)c1nc3ccccc3nc1n2-c1ccc2c(c1)OCCO2 [MLS000042026] as the molecule, how does the pIC50 read?
**A.** < 2.00

**Q.** How did the pIC50 turn out when COc1ccc(C2C3=C(OC(C)=O)c4ccccc4C3=Nc3c2c(=O)n(C)c(=O)n3C)cc1 (stereo not drawn) [MLS000073247] was run?
**A.** < 2.00

**Q.** How did the pIC50 turn out when Cc1cc(=O)[nH]c(NC(N)=Nc2cccc3ccccc23)n1 was run?
**A.** < 2.00

**Q.** How did the pIC50 turn out when COc1ccc(N2CCN(CCNS(=O)(=O)c3cccc4nsnc34)CC2)cc1 [MLS000090468] was run?
**A.** < 2.00
